# Where two headings read alike, the source gives them in different places. Non-standard residues stand in square brackets, D forms with d. Residues, ends and D or L forms follow the SMILES beside them. No end group written: not given here.
# Columns and labels:
# [1] = test system: E. coli (ATCC 25922) wild type; conditions: cultured with ½ MIC of the agent, diluted daily, for 24 days; value at day 24; three technical replicates
# Procedure: An E. coli (ATCC® 25922™) culture was sequentially diluted every day in the presence of the different antibacterial compounds: D-Ctl, ampicillin or cefotaxime at ½ MIC during 24 days. The changes in the MICs values were determined as previously described by broth microdilution at the indicated times. The experiment was performed with three technical replicates.
# [2] = test system: Escherichia coli (ATCC 25922); experiment: microbe, parasite or virus in culture; type: cell-based
# Procedure: (§1) The MIC was determined by broth microdilution. […] Three technical replicates were performed for each condition.
# [3] = test system: Escherichia coli (MDR) (K-12); experiment: microbe, parasite or virus in culture; conditions: 24 h, read-out: MIC (MIC alone)
# Procedure: (§5) According to the European Committee on Antimicrobial Susceptibility Testing[20], the effect of a combination between two antibacterial compounds can be evaluated by their FICI (Fractional Inhibitory Concentration Index). The FICI consists of the sum of the FICs of both antibacterial agents: FIC index = FICantimicrobial + FICD-Ctl. For each compound, the FIC was determined as the ratio between the MIC of the compound in combination (MICcombination) and the MIC of the compound acting alone (MICalone). On the basis of their FIC index, each combination was categorized as synergistic (≤0.5), additive (>0.5 to 1), indifferent (>1 to <4) or antagonistic (≥4).
# (§6) Microorganisms were cultured according to the manufacturer’s or the owner’s instructions in their respective media: Luria Bertani broth (Sigma) was used for E. coli strains, Mueller Hinton broth (Difco) for S. aureus strains and Anaerobe Basal broth (Oxoid) for F. nucleatum, P. intermedia and P. micra.
# (§7) The MIC was determined by broth microdilution. An overnight culture of each bacterial strain was diluted (approximately to OD600 = 0,001) and microorganisms were plated in 96-well plates in the presence of different concentrations of antimicrobials, D-Ctl or L-Ctl alone or in combination. Three technical replicates were performed for each condition. After 24 hours of incubation, the microorganism growth was assessed by optical density OD600 using a Multiskan™ EX microplate spectrophotometer (Thermo Fisher Scientific). […] Each experiment was performed with at least three biological replicates.
# [4] = test system: Escherichia coli (MDR) (K-12); conditions: for FIC: MICcombination/MICalone; for FICI: sum of both FICs; for MIC (MIC alone): broth microdilution, Luria Bertani broth, 24 h, OD600, lowest concentration inhibiting 100% of inoculum, modified Gompertz function, biological replicates
# Procedure: as §5, §6, §7
# [5] = test system: Fusobacterium nucleatum (ATCC 49256); conditions: for MIC (MIC alone): ATCC 49256, 24 h
# Procedure: as §5, §6, §7
# [6] = test system: Parvimonas micra (ATCC 33270); conditions: for MIC (MIC alone): broth microdilution, Anaerobe Basal broth, 24 h, OD600, 100% inhibition, modified Gompertz function, biological replicates
# Procedure: as §5, §6, §7
# [7] = test system: Staphylococcus aureus (MSSA) (ATCC 25923); experiment: microbe, parasite or virus in culture; conditions: for FIC: MICcombination/MICalone; for FICI: sum of both FICs
# Procedure: as §1
# [8] = test system: secreted proteases from S. aureus methicillin sensitive (MSSA); conditions: 400 μL filtered culture supernatant of MSSA, 37 °C, 24 hours; RP-HPLC C18, 214 nm, versus peptide in water
# Procedure: (§2) Bacterial supernatant was prepared as follows: a single colony of each strain was resuspended in 5 mL of culture medium as indicated above and incubated at 37 °C overnight. The culture was then centrifuged at 10000 g for 1 min and the supernatant was filtered using a […] MillexH-GV (Millipore, Carrigtwohill, Ireland). An aliquot of each supernatant was incubated at 37 °C for 48 hours. Absence of growth was interpreted as lack of viable microorganism. 400 μL of supernatant was then incubated with or without each peptide of interest at 37 °C for 24 hours. As a control, each peptide was incubated in water at 37 °C for 24 hours. Samples were then separated using a Dionex HPLC system (Ultimate 3000; Sunnyvale, CA USA) on a Nucleosil reverse-phase 300–5C18-column ([…]; particle size: […]; porosity, 300 Å) (Macherey Nagel, Hoerdt, France). Absorbance was monitored at 214 nm and the solvent system consisted of 0.1% (v/v) TFA in water (solvent A) and 0.09% (v/v) TFA in 70% (v/v) acetonitrile-water (solvent B). Elution was performed at a flow rate of […] with a gradient of solvent B as indicated on the chromatograms.
# [9] = test system: secreted proteases from P. micra; conditions: 400 μL filtered culture supernatant of P. micra, 37 °C, 24 hours; RP-HPLC C18, 214 nm, versus peptide in water
# Procedure: as §2
# [10] = test system: secreted proteases from P. intermedia; conditions: 400 μL filtered culture supernatant of P. intermedia, 37 °C, 24 hours; RP-HPLC C18, 214 nm, versus peptide in water
# Procedure: as §2
# [11] = test system: secreted proteases from E. coli MDR; conditions: 400 μL filtered culture supernatant of E. coli MDR, 37 °C, 24 hours; RP-HPLC C18, 214 nm, versus peptide in water
# Procedure: as §2
# [12] = test system: secreted proteases from F. nucleatum; conditions: 400 μL filtered culture supernatant of F. nucleatum, 37 °C, 24 hours; RP-HPLC C18, 214 nm, versus peptide in water
# Procedure: as §2
# [13] = test system: secreted proteases from E. coli wild type; conditions: 400 μL filtered culture supernatant of E. coli wild type, 37 °C, 24 hours; RP-HPLC C18, 214 nm, versus peptide in water
# Procedure: as §2
# [14] = test system: secreted proteases from S. aureus methicillin resistant (MRSA); conditions: 400 μL filtered culture supernatant of MRSA, 37 °C, 24 hours; RP-HPLC C18, 214 nm, versus peptide in water
# Procedure: as §2
# [15] = test system: Staphylococcus aureus (MRSA) (S1); conditions: for FIC: MICcombination/MICalone; for FICI: sum of both FICs
# Procedure: as §5, §6, §7
# [16] = test system: Prevotella intermedia (ATCC 49046); conditions: for MIC (MIC alone): ATCC 49046, 24 h
# Procedure: as §5, §6, §7
# [17] = test system: Staphylococcus aureus (MRSA) (S1); experiment: microbe, parasite or virus in culture; conditions: 24 h, read-out: MIC (MIC alone)
# Procedure: as §5, §6, §7
# V8 = conditions: cited from earlier work
# From the text: (§3) To this aim, different bacterial ...
# aureolysin = conditions: cited from earlier work
# From the text: as §3
# [18] = test system: epithelial cells, smooth muscle cells and T cells; conditions: cited from earlier work
# From the text: In the last decade, there have been a few HDPs entering clinical trials, specifically cathelicidins and defensins natural peptides or derivatives such as LL-37, MBI-226 (studies NCT00211523, NCT00211497 and NCT00027248 for the prevention of central venous catheter-related bloodstream infections and acne) and PMX-30063 (study NCT01211470 for acute bacterial skin and skin-structure infection). However, the clinical and commercial development of these peptide-based drugs has some limitations such as high cost of production, susceptibility to proteases and cytotoxicity. For example, the human cath ...
# [19] = test system: secreted proteases from S. aureus methicillin sensitive (MSSA); conditions: supernatant of MSSA, previous study; cited from earlier work
# From the text: (§4) Linear L-peptides with α-helical structures are usually susceptible to proteolysis. […] The specific spatial configurations of the cleavage sites for these enzymes are not present in D-peptides although these peptides might be cleaved by non-specific hydrolysis during enzymatic digestion. Subsequently, we assessed the sensitivity of D-Ctl to secreted bacterial proteases by HPLC. To this aim, different bacterial ...
# [20] = test system: secreted proteases from S. aureus methicillin resistant (MRSA); conditions: supernatant of MRSA, previous study; cited from earlier work
# From the text: as §4
# [21] = combination D-Ctl + amoxicillin, sum of both FICs
# [22] = broth microdilution, Mueller Hinton broth, 24 h, OD600, 100% inhibition, modified Gompertz function, biological replicates
# [23] = combination D-Ctl + methicillin
compound,measurement,setting,value
CC1(C)S[C@@H]2[C@H](NC(=O)[C@H](N)c3ccccc3)C(=O)N2[C@H]1C(=O)O [Ampicillin],fold change in MIC under selective pressure,[1],3 x MIC
same,MIC,"[2]; Escherichia coli, ATCC25922, broth microdilution, Luria Bertani broth, 24 h, OD600, lowest concentration inhibiting 100% of inoculum, modified Gompertz function, biological replicates, read-out: MIC",7 mg/L
CO/N=C(\C(=O)N[C@@H]1C(=O)N2C(C(=O)O)=C(COC(C)=O)CS[C@H]12)c1csc(N)n1 [Cefotaxime],MIC,[3],0.1 mg/L
same,FIC,[4]; combination D-Ctl + cefotaxime,0.5
same,Effect,"[4]; combination D-Ctl + cefotaxime, category by FIC index",Additive
same,FICI,[4]; combination D-Ctl + cefotaxime,1.0
same,fold change in MIC under selective pressure,[1],3 x MIC
"CSCC[C@@H](NC(=O)[C@@H](CO)NC(=O)[C@H](N)CCCNC(=N)N)C(=O)N[C@H](CCCNC(=N)N)C(=O)N[C@H](CC(C)C)C(=O)N[C@H](CO)C(=O)N[C@H](Cc1ccccc1)C(=O)N[C@H](CCCNC(=N)N)C(=O)N[C@H](C)C(=O)N[C@H](CCCNC(=N)N)C(=O)NCC(=O)N[C@H](Cc1ccc(O)cc1)C(=O)NCC(=O)N[C@H](Cc1ccccc1)C(=O)N[C@H](CCCNC(=N)N)C(=O)O [D-Ctl, D-Cateslytin] (H-[dR][dS][dM][dR][dL][dS][dF][dR][dA][dR]G[dY]G[dF][dR]-OH)",MIC (MIC alone),[5],22 mg/L
same,FICI,[5]; [21],1.0
same,MIC (MIC alone),[4],8.4 mg/L
same,FIC,[4]; combination D-Ctl + cefotaxime,0.5
same,FICI,[4]; combination D-Ctl + cefotaxime,1.0
same,MIC (MIC alone),[6],23 mg/L
same,FIC,"[6]; combination D-Ctl + amoxicillin, MICcombination/MICalone",0.25
same,FICI,[6]; [21],0.5
same,MIC (MIC alone),[7]; [22],24 mg/L
same,FIC,[7]; [23],0.5
same,FICI,[7]; [23],0.75
same,stability in bacterial supernatant,[8],not degraded
same,stability in bacterial supernatant,[9],not degraded
same,stability in bacterial supernatant,[10],not degraded
same,stability in bacterial supernatant,[11],not degraded
same,stability in bacterial supernatant,[12],not degraded
same,stability in bacterial supernatant,[13],not degraded
same,stability in bacterial supernatant,[14],not degraded
same,MIC (MIC alone),[15]; [22],18 mg/L
same,FIC,[15]; combination D-Ctl + vancomycin,1
same,FICI,[15]; combination D-Ctl + vancomycin,2
same,MIC (MIC alone),[16],10 mg/L
same,FICI,[16]; [21],0.5
same,MIC,"[2]; ATCC 25922, 24 h",8.0 mg/L
NC[C@H]1O[C@H](O[C@H]2[C@H](O)[C@@H](O[C@H]3O[C@H](CO)[C@@H](O)[C@H](N)[C@H]3O)[C@H](N)C[C@@H]2N)[C@H](O)[C@@H](O)[C@@H]1O [Kanamycin],MIC,"[2]; broth microdilution, Luria Bertani broth, 24 h, OD600, lowest concentration inhibiting 100% of inoculum, modified Gompertz function, biological replicates",21.6 mg/L
COc1cccc(OC)c1C(=O)N[C@@H]1C(=O)N2[C@@H]1SC(C)(C)[C@@H]2C(=O)O [Methicillin],MIC,"[7]; Staphylococcus aureus, 24 h, read-out: MIC (MIC alone)",1.2 mg/L
same,FIC,[7]; [23],0.25
same,MIC combination,"[7]; combination D-Ctl + methicillin, broth microdilution, at least in duplicate",0.3 mg/L
same,Effect,"[7]; combination D-Ctl + methicillin, category by FIC index",Additive
same,FICI,[7]; [23],0.75
CN[C@H](CC(C)C)C(=O)N[C@H]1C(=O)N[C@@H](CC(N)=O)C(=O)N[C@H]2C(=O)N[C@H]3C(=O)N[C@H](C(=O)N[C@H](C(=O)O)c4cc(O)cc(O)c4-c4cc3ccc4O)[C@H](O)c3ccc(c(Cl)c3)Oc3cc2cc(c3O[C@@H]2O[C@H](CO)[C@@H](O)[C@H](O)[C@H]2O[C@H]2C[C@](C)(N)[C@H](O)[C@H](C)O2)Oc2ccc(cc2Cl)[C@H]1O [Vancomycin],MIC,[17],0.8 mg/L
same,FIC,[15]; combination D-Ctl + vancomycin,1
same,Effect,"[15]; combination D-Ctl + vancomycin, category by FIC index",Indifferent
same,FICI,[15]; combination D-Ctl + vancomycin,2
LL-37: human cathelicidin host defence peptide,proteolysis by secreted S. aureus protease,V8,cleavage
same,proteolysis by secreted S. aureus protease,aureolysin,cleavage
same,level at which apoptosis is enhanced,[18],above 10 µM
"RSMRLSFRARGYGFR [L-Ctl, L-Cateslytin]",MIC (MIC alone),[5],125 mg/L
same,MIC (MIC alone),[4],150 mg/L
same,MIC (MIC alone),[6],120 mg/L
same,stability in bacterial supernatant,[9],resistant to the degradation
same,stability in bacterial supernatant,[10],resistant to the degradation
same,stability in bacterial supernatant,[11],degraded
same,stability in bacterial supernatant,[12],resistant to the degradation
same,stability in bacterial supernatant,[13],degraded
same,stability in bacterial supernatant,[19],stable
same,stability in bacterial supernatant,[20],stable
same,MIC (MIC alone),[16],149 mg/L
same,MIC,"[2]; ATCC 25922, 24 h",75 mg/L
